Data from patent publication US20230365577A1, “Photodynamic Therapy and Diagnosis” (RMW CHO Group Limited, priority 2020, published 2023).

Assays:
[1] = tested on: 4T1 murine breast cancer cells; test: Tumour localisation and retention, model 1 (subcutaneous 4T1 tumours); type: in vivo, Balb/C wild type mice
Method: Model 1 used Balb/C wild type mice implanted subcutaneously with 10^4×4T1 murine breast cancer cells. When tumours reached a palpable size (˜3-6 mm diameter) mice received compound 6 by either oral gavage (ORAL: 2.5 mg/kg), intravenous injection (IV: 1.0 mg/kg), or intratumoral injection (IT: 1.0 mg/kg in […]). To establish compound 6 localisation, mice were imaged using an IVIS Lumina III In Vivo Imaging System (Perkin Elmer) to detect fluorescence at 660 nm when illuminated under blue (400-460 nm) light.
In a second experiment, the localisation of compound 6 at 24 hours post-administration was compared to that of Talaporfin sodium and 5-Aminolevulinic acid (5-ALA), with all compounds injected at 0.1 mg/kg IT. Fluorescence measurements were made using an IVIS Lumina III instrument (as above).

[2] = tested on: 4T1 orthotopically implanted breast tumours; test: Photodynamic therapy of established breast tumours; type: in vivo, Balb/C wild type mice
Method: Balb/C wild type mice with established 4T1 orthotopically implanted breast tumours were administered compound 6 by IT injection. At 24 hours post-injection (allowing compound 6 to clear from non-tumour tissues), mice were placed in clear perspex cages and illuminated (whole body) under red (660 nm) light for a period of 20 minutes. Light (660 nm) was delivered at an intensity of 100 mW/cm^2 for 20 mins continuously, to achieve a total light dose of 120 J/cm^2. […]

[3] = In vivo toxicity in wild type mice; conditions: intravenous or intraperitoneal injection, 0.5 to 5 mg/kg
Method: The potential application of compound 6 as a representative phyllochlorin species was explored in vivo. Wild type mice (Balb/C and C57BL/6) received compound 6 by intravenous or intraperitoneal injection, with doses ranging from 0.5 to 5 mg/kg.

SMILES: C=Cc1c(C)c2cc3nc(c(C)c4cc(C)c(cc5nc(cc1[nH]2)C(C)=C5CC)[nH]4)[C@@H](CCC(=O)N(C)CCCS[C@@H]1O[C@H](CO)[C@@H](O)[C@H](O)[C@H]1O)[C@@H]3C [Compound 6, 3-((7S,8S)-18-ethyl-2,5,8,12,17-pentamethyl-13-vinyl-7H,8H-porphyrin-7-yl)-N-methyl-N-(3-(((2S,3R,4S,5S,6R)-3,4,5-trihydroxy-6-(hydroxymethyl)tetrahydro-2H-pyran-2-yl)thio)propyl)propanamide]
- Tumour localisation at 24 hours post-administration ([1]; 0.1 mg/kg IT, primary breast tumours, IVIS fluorescence): localised strongly to tumour
- Localisation and retention in tumour tissue ([1]; IT 1.0 mg/kg, model 1): at least 48 hours
- Fluorescence retained in tumour ([1]; IV 1.0 mg/kg, model 1): at least 4 hours
- Time of peak in tumour ([1]; IV 1.0 mg/kg, model 1): 1 h
- Tumour fluorescence at 24 hours post-injection ([1]; IV 1.0 mg/kg, model 1): undetectable
- Retention in tumour tissues following administration ([1]; in all cases (models 1 and 2, all routes)): at least 24 hours
- Clearance from healthy tissues ([1]; in all cases, dependent on the tissue type): 4 to 16 h
- Time of peak levels in tumour ([1]; oral gavage 2.5 mg/kg, model 1): 4 h
- Time remaining above background in tumour ([1]; oral gavage 2.5 mg/kg, model 1): at least 24 hours
- Tumour response ([2]; IT injection plus 660 nm light 120 J/cm2 at 24 hours, after 14 days): regressed to an undetectable level
- Time to endpoint (tumour size ≥100 mm2) ([2]; compound alone, no laser): ≤ 13 days
- Tumour regrowth ([2]; compound plus laser, after 3 weeks): no evidence of regrowth
- Time to regression of established tumours to an undetectable level ([2]; compound plus laser, n=2/group): ≤ 14 days
- Adverse toxic events [3]: no adverse toxic events observed at any dose
